Measured values: patent US10538555B2, “Macrocyclic inhibitors of the PD-1/PD-L1 and CD80(B7-1)/PD-L1 protein/protein interactions” (BRISTOL-MYERS SQUIBB COMPANY, priority 2014, dated 2020)
Read-outs that look alike come from different tables or passages of the source. *1 amine or outer side, *2 acyl side, *3 side chain or, on linkers, in order; H or OH if unused. Where a SMILES comes first, the peptide text is derived from it. Bridges are numbered along the chain shown (N, C = ends). [ ]: non-standard residue; d: D form. ξ: configuration not given here. Trp(1-CH2COOH) = N[C@@H](Cc1cn(CC(=O)O)c2ccccc12)C(=O)O; Phe(3,4,5-F3) = N[C@@H](Cc1cc(F)c(F)c(F)c1)C(=O)O; X6 = NC(=O)CCC(=O)[C@H](CSCC(=O)[*:2])N[*:1]; Pro(trans-4-F) = O=C(O)[C@@H]1C[C@@H](F)CN1; NMePhe(4-F) = CN[C@@H](Cc1ccc(F)cc1)C(=O)O; d(cisHyp) = O=C(O)[C@H]1C[C@@H](O)CN1; Bta = N[C@@H](Cc1csc2ccccc12)C(=O)O; Hyp = O=C(O)[C@@H]1C[C@@H](O)CN1; NMeF = CN[C@@H](Cc1ccccc1)C(=O)O; Pip(4-aza) = O=C(O)[C@@H]1CNCCN1; X1 = O=C([C@H]1COCCN1[*:1])[*:2]; dHyp = O=C(O)[C@H]1C[C@H](O)CN1; NMehSer = CN[C@@H](CCO)C(=O)O; NMeNle = CCCC[C@H](NC)C(=O)O; dPip = O=C(O)[C@H]1CCCCN1; hSer = N[C@@H](CCO)C(=O)O; NMeA = CN[C@@H](C)C(=O)O; Orn = NCCC[C@H](N)C(=O)O; Dab = NCC[C@H](N)C(=O)O; Dap = NC[C@H](N)C(=O)O; ξC = NC(CS)C(=O)O; Sar = CNCC(=O)O

Target: T1, Human PD-L1/PD-1 (Homo sapiens, UniProt Q9NZQ7)
T1 construct: TVMV protease cleavage site (C); made in house; host or cells: HEK293T cells
Assay: HTRF Human PD-L1/PD-1 binding assay (PD-1-Ig/PD-L1-His)
Conditions: PD-L1-His 10 nM, PD-1-Ig 20 nM
Summary of the method: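 HTRF read-out (665/620 nm ratio) after 30 min equilibration with Eu-cryptate anti-Ig mAb (1 nM) and APC anti-His mAb (20 nM). Peptides preincubated 15 min with PD-L1-His (10 nM), then PD-1-Ig (20 nM) added for 15 min.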

[1] = class symbol, read-out: HTRF Human PD-L1/PD-1 Binding Assay IC50 Range
[2] = read-out: HTRF Human PD-L1/PD-1 Binding Assay IC50

T1 sequence (Q9NZQ7 with tags, fused parts or gaps): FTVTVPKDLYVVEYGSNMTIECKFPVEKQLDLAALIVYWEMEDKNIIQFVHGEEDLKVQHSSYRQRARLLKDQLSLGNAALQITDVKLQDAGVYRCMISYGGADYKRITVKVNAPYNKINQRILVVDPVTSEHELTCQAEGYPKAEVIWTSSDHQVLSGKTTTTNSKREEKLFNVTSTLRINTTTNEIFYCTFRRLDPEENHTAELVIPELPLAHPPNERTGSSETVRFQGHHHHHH

Compound	IC50 [1]	IC50 [2]
CCCC[C@H]1C(=O)N(C)CC(=O)N[C@@H](CC(=O)O)C(=O)N[C@@H](C(C)C)C(=O)N(C)[C@@H](Cc2ccccc2)C(=O)N[C@@H](Cc2ccc(O)cc2)C(=O)N(C)CC(=O)N[C@@H](Cc2c[nH]c3ccccc23)C(=O)N[C@@H](Cc2ccc(O)cc2)C(=O)N[C@@H](CC(C)C)C(=O)N[C@H](C(=O)NCC(N)=O)CSCC(=O)N[C@@H](Cc2csc3ccccc23)C(=O)N(C)[C@@H](Cc2ccccc2)C(=O)N1C [Example 3245] ({CH2CO}-[Bta][NMeF][NMeNle][Sar]DV[NMeF]Y[Sar]WYLCG-NH2; thioether N-13)	1000 to 10000 nM	
CCCC[C@H]1C(=O)N(C)[C@@H](CCCC)C(=O)N[C@@H](CCCN)C(=O)N[C@H](C(=O)NCC(N)=O)CSCC(=O)N[C@@H](Cc2ccc(OC)cc2)C(=O)N(C)[C@@H](C)C(=O)N[C@@H](CC(=O)O)C(=O)N2CCC[C@H]2C(=O)N[C@@H](Cc2cnc[nH]2)C(=O)N[C@@H](CCCCN)C(=O)N2C[C@H](O)C[C@H]2C(=O)N[C@@H](Cc2c[nH]c3ccccc23)C(=O)N[C@@H](CC(=O)O)C(=O)N[C@@H](Cc2c[nH]c3ccccc23)C(=O)N1C [Example 7106] ({CH2CO}-Y(Me)[NMeA]DPHK[Hyp]WDW[NMeNle][NMeNle][Orn]CG-NH2; thioether N-14)	1 to 9.9 nM	
CCCC[C@H]1C(=O)N2C[C@@H](O)C[C@@H]2C(=O)N[C@@H](CC(=O)O)C(=O)N[C@@H](C(C)C)C(=O)N(C)[C@@H](Cc2ccccc2)C(=O)N[C@@H](CCC(=O)O)C(=O)N2CCOC[C@@H]2C(=O)N[C@@H](Cc2cn(CC(=O)O)c3ccccc23)C(=O)N[C@@H](Cc2ccc(O)cc2)C(=O)N[C@@H](CCN)C(=O)N[C@H](C(=O)CCC(N)=O)CSCC(=O)N[C@@H](Cc2cc(F)c(F)c(F)c2)C(=O)N(C)[C@@H](Cc2ccccc2)C(=O)N1C [Example 9271] (cyclo(DV[NMeF]E[X1][Trp(1-CH2COOH)]Y[Dab][X6][Phe(3,4,5-F3)][NMeF][NMeNle][dHyp]))	1 to 9.9 nM	
CCCC[C@H]1C(=O)N(C)[C@@H](CCCC)C(=O)N[C@@H](CC(C)C)C(=O)N[C@H](C(N)=O)CSCC(=O)N[C@@H](Cc2ccc(O)cc2)C(=O)N(C)[C@@H](C)C(=O)N[C@@H](CC(N)=O)C(=O)N2CCC[C@H]2C(=O)N[C@@H](CN)C(=O)N[C@@H](CC(C)C)C(=O)N2C[C@H](O)C[C@H]2C(=O)N[C@@H](Cc2c[nH]c3ccccc23)C(=O)N[C@@H](CC(=O)O)C(=O)N[C@@H](Cc2cn(CC(=O)O)c3ccccc23)C(=O)N1C [Example 6258] ({CH2CO}-Y[NMeA]NP[Dap]L[Hyp]WD[Trp(1-CH2COOH)][NMeNle][NMeNle]LC-NH2; thioether N-14)	10 to 99.9 nM	
COCC[C@H]1C(=O)N2C[C@@H](O)C[C@@H]2C(=O)N[C@@H](CC(=O)O)C(=O)N[C@@H](C(C)C)C(=O)N(C)[C@@H](Cc2ccccc2)C(=O)N[C@@H](CC(=O)O)C(=O)N2CCOC[C@@H]2C(=O)N[C@@H](Cc2c[nH]c3ccccc23)C(=O)N[C@@H](Cc2ccc(O)cc2)C(=O)N[C@@H](CCCN)C(=O)N[C@H](C(=O)NCC(N)=O)CSCC(=O)N[C@@H](Cc2cc(F)c(F)c(F)c2)C(=O)N(C)[C@@H](Cc2ccccc2)C(=O)N1C [Example 9269] ({CH2CO}-[Phe(3,4,5-F3)][NMeF][NMehSer](Me)[dHyp]DV[NMeF]D[X1]WY[Orn]CG-NH2; thioether N-13)	1 to 9.9 nM	
CCCC[C@H]1C(=O)N(C)[C@@H](CCCC)C(=O)N[C@@H](CCC(=O)O)C(=O)N[C@H](C(=O)NCC(N)=O)CSCC(=O)N[C@@H](Cc2ccc(O)cc2)C(=O)N(C)[C@@H](C)C(=O)N[C@@H](CC(=O)O)C(=O)N2CCC[C@H]2C(=O)N[C@@H](Cc2cnc[nH]2)C(=O)N[C@@H](CCC(=O)O)C(=O)N2C[C@H](O)C[C@H]2C(=O)N[C@@H](Cc2c[nH]c3ccccc23)C(=O)N[C@@H](CCC(=O)O)C(=O)N[C@@H](Cc2c[nH]c3ccccc23)C(=O)N1C [Example 5236] ({CH2CO}-Y[NMeA]DPHE[Hyp]WEW[NMeNle][NMeNle]ECG-NH2; thioether N-14)	1 to 9.9 nM	
CCCC[C@H]1C(=O)N(C)[C@@H](CCCC)C(=O)N[C@@H](CCCNC(=N)N)C(=O)NC(C(=O)NCC(N)=O)CSCC(=O)N[C@@H](Cc2ccc(O)cc2)C(=O)N(C)[C@@H](C)C(=O)N[C@@H](CC(N)=O)C(=O)N2CCC[C@H]2C(=O)N[C@@H](CCO)C(=O)N[C@@H](CC(C)C)C(=O)N2CCC[C@H]2C(=O)N[C@@H](Cc2c[nH]c3ccccc23)C(=O)N[C@@H](CO)C(=O)N[C@@H](Cc2csc3ccccc23)C(=O)N1C (stereo partly drawn) [Example 9149] ({CH2CO}-Y[NMeA]NP[hSer]LPWS[Bta][NMeNle][NMeNle]R[ξC]G-NH2; thioether N-14)		1000 nM
CCCC[C@H]1C(=O)N2CCC[C@@H]2C(=O)N2CCNC[C@H]2C(=O)N[C@@H](C(C)C)C(=O)N(C)[C@@H](Cc2ccccc2)C(=O)N[C@@H](Cc2ccc(O)cc2)C(=O)N2CCCC[C@@H]2C(=O)N[C@@H](Cc2c[nH]c3ccccc23)C(=O)N[C@@H](Cc2ccc(O)cc2)C(=O)N[C@@H](CC(C)C)C(=O)N[C@H](C(=O)NCC(N)=O)CSCC(=O)N[C@@H](Cc2cc(F)c(F)c(F)c2)C(=O)N(C)[C@@H](Cc2ccccc2)C(=O)N1C [Example 3218] ({CH2CO}-[Phe(3,4,5-F3)][NMeF][NMeNle][dP][Pip(4-aza)]V[NMeF]Y[dPip]WYLCG-NH2; thioether N-13)	1 to 9.9 nM	
CCCC[C@H]1C(=O)N(C)[C@@H](CCCC)C(=O)N[C@@H](CCCN)C(=O)N[C@H](C(=O)NCC(N)=O)CSCC(=O)N[C@@H](Cc2ccc(OC)cc2)C(=O)N(C)[C@@H](C)C(=O)N[C@@H](CC(N)=O)C(=O)N2CCC[C@H]2C(=O)N[C@@H](CC(N)=O)C(=O)N[C@@H](CC(C)C)C(=O)N2C[C@H](F)C[C@H]2C(=O)N[C@@H](Cc2c[nH]c3ccccc23)C(=O)N[C@@H](C)C(=O)N[C@@H](Cc2c[nH]c3ccccc23)C(=O)N1C [Example 7084] ({CH2CO}-Y(Me)[NMeA]NPNL[Pro(trans-4-F)]WAW[NMeNle][NMeNle][Orn]CG-NH2; thioether N-14)	1 to 9.9 nM	
CCCC[C@H]1C(=O)N(C)[C@@H](CCOC)C(=O)N[C@@H](CC(C)C)C(=O)N[C@H](C(=O)NCC(N)=O)CSCC(=O)N[C@@H](Cc2ccc(O)cc2)C(=O)N(C)[C@@H](C)C(=O)N[C@@H](CC(N)=O)C(=O)N2CCC[C@H]2C(=O)N[C@@H](Cc2c[nH]cn2)C(=O)N[C@@H](CCC(N)=O)C(=O)N2C[C@H](O)C[C@H]2C(=O)N[C@@H](Cc2c[nH]c3ccccc23)C(=O)NCC(=O)N[C@@H](Cc2c[nH]c3ccccc23)C(=O)N1C [Example 10143] ({CH2CO}-Y[NMeA]NPHQ[Hyp]WGW[NMeNle][NMehSer](Me)LCG-NH2; thioether N-14)		10.9 nM
CCCC[C@H]1C(=O)N[C@@H](CC(N)=O)C(=O)N2CCC[C@H]2C(=O)N[C@@H](CO)C(=O)N[C@@H](CCO)C(=O)N2CCC[C@H]2C(=O)N[C@@H](Cc2c[nH]c3ccccc23)C(=O)N[C@@H](CCO)C(=O)N[C@@H](Cc2c[nH]c3ccccc23)C(=O)N(C)[C@@H](C)C(=O)N(C)[C@@H](C)C(=O)N[C@@H](CCCN)C(=O)NC(C(=O)NCC(N)=O)CSCC(=O)N[C@@H](Cc2ccc(O)cc2)C(=O)N1C (stereo partly drawn) [Example 10216] ({CH2CO}-Y[NMeNle]NPS[hSer]PW[hSer]W[NMeA][NMeA][Orn][ξC]G-NH2; thioether N-14)	1000 to 10000 nM	
CCCC[C@H]1C(=O)N(C)[C@@H](CCCC)C(=O)N[C@@H](CC(C)C)C(=O)N[C@H](C(=O)NCC(N)=O)CSCC(=O)N[C@@H](Cc2ccc(O)cc2)C(=O)N(C)[C@@H](C)C(=O)N[C@@H](CCN)C(=O)N2CCC[C@H]2C(=O)N[C@@H](Cc2c[nH]cn2)C(=O)N[C@@H](CCCCN)C(=O)N2C[C@H](O)C[C@H]2C(=O)N[C@@H](Cc2c[nH]c3ccccc23)C(=O)N[C@@H](CCCCN)C(=O)N[C@@H](Cc2c[nH]c3ccccc23)C(=O)N1C [Example 5201] ({CH2CO}-Y[NMeA][Dab]PHK[Hyp]WKW[NMeNle][NMeNle]LCG-NH2; thioether N-14)	1 to 9.9 nM	
CCCC[C@H]1C(=O)N2CCC[C@@H]2C(=O)N[C@@H](CC(=O)O)C(=O)N[C@@H](C(C)C)C(=O)N(C)[C@@H](Cc2ccccc2)C(=O)N[C@@H](CCC(=O)O)C(=O)N2CCCC[C@@H]2C(=O)N[C@@H](Cc2c[nH]c3ccccc23)C(=O)N[C@@H](Cc2ccc(O)cc2)C(=O)N[C@@H](CN)C(=O)N[C@H](C(=O)NCC(N)=O)CSCC(=O)N[C@@H](Cc2cc(F)c(F)c(F)c2)C(=O)N(C)[C@@H](Cc2ccc(F)cc2)C(=O)N1C [Example 10569] ({CH2CO}-[Phe(3,4,5-F3)][NMePhe(4-F)][NMeNle][dP]DV[NMeF]E[dPip]WY[Dap]CG-NH2; thioether N-13)	1 to 9.9 nM	
CCCC[C@H]1C(=O)N2C[C@H](O)C[C@@H]2C(=O)N[C@@H](CC(=O)O)C(=O)N[C@@H](C(C)C)C(=O)N(C)[C@@H](Cc2ccccc2)C(=O)N[C@@H](CCN)C(=O)N2C[C@H](O)C[C@@H]2C(=O)N[C@@H](Cc2c[nH]c3ccccc23)C(=O)N[C@@H](Cc2ccc(O)cc2)C(=O)N[C@@H](CCCN)C(=O)N[C@H](C(=O)NCC(N)=O)CSCC(=O)N[C@@H](Cc2cc(F)c(F)c(F)c2)C(=O)N(C)[C@@H](Cc2ccc(F)cc2)C(=O)N1C [Example 10613] ({CH2CO}-[Phe(3,4,5-F3)][NMePhe(4-F)][NMeNle][d(cisHyp)]DV[NMeF][Dab][d(cisHyp)]WY[Orn]CG-NH2; thioether N-13)	1 to 9.9 nM	
CCCC[C@H]1C(=O)N(C)[C@@H](CCCC)C(=O)N[C@@H](CC(C)C)C(=O)N[C@H](C(=O)NCC(N)=O)CSCC(=O)N[C@@H](Cc2ccc(O)cc2)C(=O)N(C)[C@@H](C)C(=O)N[C@@H](CC(N)=O)C(=O)N2CCC[C@H]2C(=O)N[C@@H](Cc2cnc[nH]2)C(=O)N[C@@H](CCCCN)C(=O)N2C[C@H](O)C[C@H]2C(=O)N[C@@H](Cc2c[nH]c3ccccc23)C(=O)N[C@@H](CCCCN)C(=O)N[C@@H](Cc2cn(CC(=O)O)c3ccccc23)C(=O)N1C [Example 6204] ({CH2CO}-Y[NMeA]NPHK[Hyp]WK[Trp(1-CH2COOH)][NMeNle][NMeNle]LCG-NH2; thioether N-14)	1 to 9.9 nM	
